Measured values published in the supplement of paper PMC11061612.

Key:
Assay in all cases: combination Emax (second highest fraction inhibited in the dose matrix, 72 h); higher = more inhibition; extreme values may be limits of the assay
[1] = tested on: OPM-2 (Plasma Cell Myeloma)
In short: (§1)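 Cell lines grown in DMEM/F12 or RPMI with 10% FBS were plated in 1536-well plates and held 24 hours at 37°C, 5% CO2 before 72 hours of exposure to two-drug dose matrices, with DMSO typically at 0.2%. CellTiter-Glo 2.0 luminescence gave viability, which was converted to inhibition. Vehicle wells were set to 0 and blank wells to 1. Combination Emax is the second-highest inhibition in the matrix, and Bliss excess is the observed combination effect minus the expected EA + EB − EA·EB, where EA and EB are the single-agent effects.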

[2] = tested on: SK-PN-DW (Other Solid Carcinomas)
In short: as §1

[3] = tested on: IST-MES1 (Mesothelioma)
In short: as §1

[4] = tested on: OVMIU (Ovarian Carcinoma)
In short: as §1

[5] = tested on: NB12 (Neuroblastoma)
In short: as §1

[6] = tested on: PANC-03-27 (Pancreatic Carcinoma)
In short: as §1

[7] = tested on: L-1236 (Hodgkin's Lymphoma)
In short: as §1

[8] = tested on: SF539 (Glioblastoma)
In short: as §1

SMILES | combination Emax [1] | combination Emax [2] | combination Emax [3] | combination Emax [4] | combination Emax [5] | combination Emax [6] | combination Emax [7] | combination Emax [8]
C=CCn1c(=O)c2cnc(Nc3ccc(N4CCN(C)CC4)cc3)nc2n1-c1cccc(C(C)(C)O)n1 [AZD1775] + CCc1c2c(nc3ccc(O)cc13)-c1cc3c(c(=O)n1C2)COC(=O)[C@]3(O)CC [SN-38] (first compound max 1 µM, partner max 0.3 µM) | 0.954 | 0.947 | 0.778 | 0.587 | 0.879 | 0.844 | 0.969 | 0.997
C=CCn1c(=O)c2cnc(Nc3ccc(N4CCN(C)CC4)cc3)nc2n1-c1cccc(C(C)(C)O)n1 [AZD1775] + Nc1ccn([C@@H]2O[C@H](CO)[C@@H](O)C2(F)F)c(=O)n1 [Gemcitabine] (first compound max 1 µM, partner max 0.3 µM) | 0.953 | 0.864 | 0.831 | 0.608 | 0.806 | 0.703 | 0.954 | 0.986
CN(CCO)CC[C@H](CSc1ccccc1)Nc1ccc(S(=O)(=O)NC(=O)c2ccc(N3CCC([C@@H](O)c4ccccc4-c4ccc(Cl)cc4)CC3)cc2)cc1S(=O)(=O)C(F)(F)F [AZD4320] + CC(=O)O[C@H]1C(=O)[C@@]2(C)[C@H]([C@H](OC(=O)c3ccccc3)[C@]3(O)C[C@H](OC(=O)[C@H](O)[C@@H](NC(=O)c4ccccc4)c4ccccc4)C(C)=C1C3(C)C)[C@]1(OC(C)=O)CO[C@@H]1C[C@@H]2O [Paclitaxel] (first compound max 1 µM, 7x7, partner max 3 µM) | 1 | 0.918 | 0.873 | 0.929 | 1 | 0.885 | 1 | 1
CN(CCO)CC[C@H](CSc1ccccc1)Nc1ccc(S(=O)(=O)NC(=O)c2ccc(N3CCC([C@@H](O)c4ccccc4-c4ccc(Cl)cc4)CC3)cc2)cc1S(=O)(=O)C(F)(F)F [AZD4320] + CS(=O)(=O)CCNCc1ccc(-c2ccc3ncnc(Nc4ccc(OCc5cccc(F)c5)c(Cl)c4)c3c2)o1 [Lapatinib] (first compound max 1 µM, 7x7, partner max 10 µM) | 0.938 | 0.85 | 0.892 | 0.971 | 1 | 0.907 | 1 | 0.575
CN(CCO)CC[C@H](CSc1ccccc1)Nc1ccc(S(=O)(=O)NC(=O)c2ccc(N3CCC([C@@H](O)c4ccccc4-c4ccc(Cl)cc4)CC3)cc2)cc1S(=O)(=O)C(F)(F)F [AZD4320] + Nc1ccn([C@@H]2O[C@H](CO)[C@@H](O)C2(F)F)c(=O)n1 [Gemcitabine] (first compound max 1 µM, 7x7, partner max 0.3 µM) | 0.628 | 0.165 | 0.8 | 0.596 | 1 | 0.737 | 1 | 0.945
Cc1c2c(nn1C)CSCc1cc(n(C)n1)CSc1cc(c3ccccc3c1)OCCCc1c(C(=O)O)n(C)c3c-2c(Cl)ccc13 [AZD5991] + CC(=O)O[C@H]1C(=O)[C@@]2(C)[C@H]([C@H](OC(=O)c3ccccc3)[C@]3(O)C[C@H](OC(=O)[C@H](O)[C@@H](NC(=O)c4ccccc4)c4ccccc4)C(C)=C1C3(C)C)[C@]1(OC(C)=O)CO[C@@H]1C[C@@H]2O [Paclitaxel] (first compound max 1 µM, 7x7, partner max 3 µM) | 1 | 0.952 | 0.651 | 0.735 | 0.91 | 0.688 | 0.846 | 0.971
Cc1c2c(nn1C)CSCc1cc(n(C)n1)CSc1cc(c3ccccc3c1)OCCCc1c(C(=O)O)n(C)c3c-2c(Cl)ccc13 [AZD5991] + CS(=O)(=O)CCNCc1ccc(-c2ccc3ncnc(Nc4ccc(OCc5cccc(F)c5)c(Cl)c4)c3c2)o1 [Lapatinib] (first compound max 1 µM, 7x7, partner max 10 µM) | 1 | 0.956 | 0.615 | 0.687 | 0.464 | 0.558 | 0.798 | 0.479
Cc1c2c(nn1C)CSCc1cc(n(C)n1)CSc1cc(c3ccccc3c1)OCCCc1c(C(=O)O)n(C)c3c-2c(Cl)ccc13 [AZD5991] + Nc1ccn([C@@H]2O[C@H](CO)[C@@H](O)C2(F)F)c(=O)n1 [Gemcitabine] (first compound max 1 µM, 7x7, partner max 0.3 µM) | 1 | 0.815 | 0.742 | 0.551 | 0.77 | 0.549 | 0.806 | 0.886
C[C@@H]1COCCN1c1cc(C2([S@](C)(=N)=O)CC2)nc(-c2ccnc3[nH]ccc23)n1 [AZD6738] + Nc1ccn([C@@H]2O[C@H](CO)[C@@H](O)C2(F)F)c(=O)n1 [Gemcitabine] (first compound max 10 µM, 7x7, partner max 0.3 µM) | 0.942 | 0.957 | 0.798 | 0.517 | 0.801 | 0.737 | 0.918 | 0.981
Cc1cc2ncnn2cc1Nc1ncc2c(n1)n(C1CCOCC1)c(=O)n2C [AZD7648] + COc1cc([C@@H]2c3cc4c(cc3[C@@H](O[C@@H]3O[C@@H]5CO[C@@H](C)O[C@H]5[C@H](O)[C@H]3O)[C@H]3COC(=O)[C@H]23)OCO4)cc(OC)c1O [Etoposide] (first compound max 10 µM, 7x7, partner max 10 µM) | 0.788 | 0.918 | 0.685 | 0.498 | 0.695 | 0.619 | 0.845 | 0.934
C[C@@H](Nc1cc(F)cc(F)c1)c1cc(C(=O)N(C)C)cc2c(=O)cc(N3CCOCC3)oc12 [AZD8186] + C1CN(CCC1(C(=O)N[C@@H](CCO)C2=CC=C(C=C2)Cl)N)C3=NC=NC4=C3C=CN4 [AZD5363] (first compound max 10 µM, 7x7, partner max 10 µM) | 0.922 | 0.575 | 0.267 | 0.509 | 0.419 | 0.315 | 0.722 | 0.538
C[C@@H](Nc1cc(F)cc(F)c1)c1cc(C(=O)N(C)C)cc2c(=O)cc(N3CCOCC3)oc12 [AZD8186] + CC(=O)c1c(C)c2cnc(Nc3ccc(N4CCNCC4)cn3)nc2n(C2CCCC2)c1=O [Palbociclib] (first compound max 10 µM, 7x7, partner max 10 µM) | 0.563 | 0.644 | 0.454 | 0.497 | 0.403 | 0.513 | 0.697 | 0.412
C[C@@H](Oc1cc(-c2cnn(C3CCNCC3)c2)cnc1N)c1c(Cl)ccc(F)c1Cl [Crizotinib] + CC1=C(C(=CC=C1)Cl)NC(=O)C2=CN=C(S2)NC3=CC(=NC(=N3)C)N4CCN(CC4)CCO [Dasatinib] (first compound max 10 µM, 7x7, partner max 2 µM) | 0.964 | 0.763 | 0.938 | 0.933 | 0.766 | 0.887 | 0.905 | 0.886
C[C@@H](Oc1cc(-c2cnn(C3CCNCC3)c2)cnc1N)c1c(Cl)ccc(F)c1Cl [Crizotinib] + Cn1cnc2c(F)c(Nc3ccc(Br)cc3Cl)c(C(=O)NOCCO)cc21 [Selumetinib] (first compound max 10 µM, 7x7, partner max 10 µM) | 0.985 | 0.739 | 0.864 | 0.498 | 0.79 | 0.543 | 0.975 | 0.764
CS(=O)(=O)CCNCc1ccc(-c2ccc3ncnc(Nc4ccc(OCc5cccc(F)c5)c(Cl)c4)c3c2)o1 [Lapatinib] + Cn1cnc2c(F)c(Nc3ccc(Br)cc3Cl)c(C(=O)NOCCO)cc21 [Selumetinib] (first compound max 10 µM, 7x7, partner max 10 µM) | 0.533 | 0.556 | 0.55 | 0.671 | 0.354 | 0.812 | 0.712 | 0.601
O=C(c1cc(Cc2n[nH]c(=O)c3ccccc23)ccc1F)N1CCN(C(=O)C2CC2)CC1 [Olaparib] + CC1(C)CCC(CN2CCN(c3ccc(C(=O)NS(=O)(=O)c4ccc(NCC5CCOCC5)c([N+](=O)[O-])c4)c(Oc4cnc5[nH]ccc5c4)c3)CC2)=C(c2ccc(Cl)cc2)C1 [Venetoclax] (first compound max 10 µM, 7x7, partner max 1 µM) | 0.256 | 0.301 | 0.283 | 0.114 | 0.922 | 0.12 | 0.37 | 0.358
O=C(c1cc(Cc2n[nH]c(=O)c3ccccc23)ccc1F)N1CCN(C(=O)C2CC2)CC1 [Olaparib] + CN(CC[C@H](CSC1=CC=CC=C1)NC2=C(C=C(C=C2)S(=O)(=O)NC(=O)C3=CC=C(C=C3)N4CCC(CC4)[C@H](C5=CC=CC=C5C6=CC=C(C=C6)Cl)O)S(=O)(=O)C(F)(F)F)CCO [AZD4320] (first compound max 10 µM, 7x7, partner max 1 µM) | 0.337 | 0.378 | 0.211 | 0.22 | 0.997 | 0.266 | 0.994 | 0.463
O=C(c1cc(Cc2n[nH]c(=O)c3ccccc23)ccc1F)N1CCN(C(=O)C2CC2)CC1 [Olaparib] + COc1nnc2ccc(N3CCC(c4ccc(OCCN5CCN(C)C(=O)[C@H]5C)cc4)CC3)nn12 [AZD5153] (first compound max 10 µM, 7x7, partner max 1 µM) | 1 | 0.698 | 0.611 | 0.603 | 0.782 | 0.196 | 0.96 | 0.642
O=C(c1cc(Cc2n[nH]c(=O)c3ccccc23)ccc1F)N1CCN(C(=O)C2CC2)CC1 [Olaparib] + Cc1c2c(nn1C)CSCc1cc(n(C)n1)CSc1cc(c3ccccc3c1)OCCCc1c(C(=O)O)n(C)c3c-2c(Cl)ccc13 [AZD5991] (first compound max 10 µM, 7x7, partner max 1 µM) | 1 | 0.781 | 0.242 | 0.104 | 0.379 | 0.128 | 0.53 | 0.46
N#Cc1cnc(Nc2cc(NC[C@H]3CNCCO3)c(C(F)(F)F)cn2)cn1 [SRA737] + C=CCn1c(=O)c2cnc(Nc3ccc(N4CCN(C)CC4)cc3)nc2n1-c1cccc(C(C)(C)O)n1 [AZD1775] (first compound max 10 µM, partner max 1 µM) | 0.93 | 0.913 | 0.442 | 0.669 | 0.698 | 0.858 | 0.952 | 0.986
